According to article PMC3502260, “Plasmodium serine hydroxymethyltransferase as a potential anti-malarial target: inhibition studies using improved methods for enzyme production and assay” (Malaria Journal, 2012):

Assays:
[1] = biological target: T1, PfSHMT (Plasmodium falciparum, UniProt Q8I566); assay: PLP fluorescence quenching; type: binding; settings: 10 mM ligand, ~23 μM enzyme, 25 °C, 50 mM HEPES pH 7
T1 construct: gene SHMT; recombinant, expressed in E. coli BL21(DE3) as in an earlier report, purified on Ni-Sepharose; dimer
T1 sequence (Q8I566 1-442): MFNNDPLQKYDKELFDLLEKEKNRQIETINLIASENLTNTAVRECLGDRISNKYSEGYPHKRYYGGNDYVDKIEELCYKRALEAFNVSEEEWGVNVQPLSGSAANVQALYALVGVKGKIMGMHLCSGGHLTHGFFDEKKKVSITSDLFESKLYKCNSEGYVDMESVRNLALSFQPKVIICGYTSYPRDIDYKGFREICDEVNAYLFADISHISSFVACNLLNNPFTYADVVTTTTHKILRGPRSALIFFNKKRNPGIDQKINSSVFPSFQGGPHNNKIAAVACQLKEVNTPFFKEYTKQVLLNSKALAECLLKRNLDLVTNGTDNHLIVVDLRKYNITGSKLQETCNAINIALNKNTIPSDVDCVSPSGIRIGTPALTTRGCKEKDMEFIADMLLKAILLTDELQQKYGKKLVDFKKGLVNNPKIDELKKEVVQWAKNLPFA

[2] = biological target: T2, PvSHMT (Plasmodium vivax, UniProt A5K8L9); assay: PLP fluorescence quenching; type: binding; settings: 10 mM ligand, ~23 μM enzyme, 25 °C, 50 mM HEPES pH 7
T2 construct: gene PVX_100730; recombinant, expressed in E. coli BL21(DE3) as in an earlier report; dimer
T2 sequence (A5K8L9 1-442): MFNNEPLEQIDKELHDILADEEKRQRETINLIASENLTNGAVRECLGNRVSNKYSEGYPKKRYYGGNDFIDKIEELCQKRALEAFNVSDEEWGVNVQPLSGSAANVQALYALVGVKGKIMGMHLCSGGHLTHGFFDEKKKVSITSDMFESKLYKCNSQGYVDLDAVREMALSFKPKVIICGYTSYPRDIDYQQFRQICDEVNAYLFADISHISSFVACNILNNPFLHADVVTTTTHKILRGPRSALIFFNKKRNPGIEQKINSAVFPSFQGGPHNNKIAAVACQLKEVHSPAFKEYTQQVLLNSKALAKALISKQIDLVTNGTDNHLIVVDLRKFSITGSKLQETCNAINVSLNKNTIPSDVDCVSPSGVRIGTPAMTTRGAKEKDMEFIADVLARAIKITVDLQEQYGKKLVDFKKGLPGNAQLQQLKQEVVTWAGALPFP

[3] = biological target: T1, PfSHMT; assay: SHMT-MTHFD coupled assay, initial rates; type: biochemical; settings: read-out: % inhibition at 0.1 mM
[4] = biological target: T1, PfSHMT; assay: time-dependent inactivation, SHMT-MTHFD coupled assay; type: biochemical; settings: covalent; time-dependent inactivation by reaction with PLP; preincubation 5-30 min; 25 °C, 50 mM HEPES pH 7
[5] = biological target: T2, PvSHMT; assay: as above; type: biochemical; settings: covalent; time-dependent inactivation by reaction with PLP; preincubation 5-30 min; 25 °C, 50 mM HEPES pH 7
[6] = biological target: T2, PvSHMT; assay: SHMT-MTHFD coupled assay, initial rates; type: biochemical; settings: read-out: % inhibition at 0.25 mM

`N[C@H](CO)C(=O)O` [D-serine] was tested, and the PLP fluorescence quenching [1] was “Upon addition of amino acids (L-, D-serine, L-alanine, and glycine), the fluorescence signal of Pf-” and the PLP fluorescence quenching [2] was “the fluorescence signal of Pf- and PvSHMT was quenched”.

With `N[C@@H](CO)C(=O)O` [L-serine] the PLP fluorescence quenching [1] was “Upon addition of amino acids (L-, D-serine, L-alanine, and glycine), the fluorescence signal of Pf-”.

`C[C@H](N)C(=O)O` [L-alanine] was tested, and the PLP fluorescence quenching [1] was “Upon addition of amino acids (L-, D-serine, L-alanine, and glycine), the fluorescence signal of Pf-” and the PLP fluorescence quenching [2] was “the fluorescence signal of Pf- and PvSHMT was quenched”.

`CCCCOc1cc(Cc2cnc(N)nc2N)ccc1OCc1cc(OC)c(OC)c(OC)c1` [CT-57-59-38] gave an inhibition at 100 µM [3] of 40%.

In the case of `NCC(=O)O` [glycine], the PLP fluorescence quenching [1] is reported as “for PfSHMT the binding of glycine caused the largest decrease in fluorescence intensity” and the PLP fluorescence quenching [2] is reported as “the fluorescence signal of Pf- and PvSHMT was quenched”.

For `NNC(N)=S` [thiosemicarbazide], the KI (inactivation) [4] was 360 ± 70 µM and the KI (inactivation) [5] was 210 ± 80 µM.

`CCOc1cc(Cc2cnc(N)nc2N)ccc1OCCCc1ccccc1` [CT-55-59-42] gave an inhibition at 100 µM [3] of 40%.

Molecule `CCc1nc(N)nc(N)c1OCCCOc1ccnc2ccccc12` [TV-P-0-113] has an inhibition at 250 µM [6] of 40%.
